What all share (format): cell-based
The nature of one series: in vitro. Conditions: human; Huh 7 cells with GT1b wild-type replicon, 3 days, CellTiter-Fluor. How it is done:
(§1) Cells: Huh 7 cell line and HCV GT1b/3a and GT1b/6a NS5A chimeric replicons and GT1b and GT1a wild-type replicon RNA.
(§2) Treatment of Compound: According to the assay final concentrations of the compounds in Table 2, DMSO stock solutions of the compounds were diluted and then added to a 96-well assay plate. The final concentration of DMSO was 0.5%.
(§3) The preparation of cells: After replicon plasmid DNA was linearized with a corresponding restriction enzyme, the DNA was transcribed into RNA by using T7RNA polymerase. Replicon RNA prepared by transcription in vitro was transfected into Huh-7 cells by electroporation. Transfected cells were seeded at a density of 10,000 cells per well into the 96-well assay plate containing the diluted compounds, and then the plate was placed in a 37° C. incubator with 5% CO2 and cultured for 3 days.
(§4) Cell viability assay: A cell growth fluorescent titration detection reagent CellTiter-Fluor was added to the 96-well plate of the GT1b wild-type replicon. After the cells were cultured for 1 hour in a 37° C. incubator with 5% CO2, the fluorescence signal value (RFU) was detected by Envision, and the original data (RFU) was used for the calculation of the cytotoxicity of the compounds.
The cytotoxicity of the compounds was calculated by using the equation below: Cell Viability %=(CPD−HPE)/(ZPE−HPE)×100%*
(§5) The cell viability percentages (Viability %) and the inhibition percentages (Inhibition %) were imported into GraphPad Prism software, respectively, and curves were fitted by using nonlinear regression method to obtain the corresponding curves of the compounds, and the cytotoxicity (CC50) thereof and inhibitory activity (EC50) values against the HCV replicon thereof.

For series [1], the system named is HCV GT1b/3a NS5A chimeric replicon. The series is described as follows: Assay Example 1: activity against HCV GT1b/3a NS5A chimeric replicon. The following applies: Hepatitis C virus, Huh-7, 72 h, read-out: EC50 value GT1b/3a NS5A chimeric replicon. How it is done: as §1, §2, §3
(§6) Drug activity assay: Luminescence signal value (RLU) was detected with Envision within 15 minutes using the luciferase assay reagent Britelite plus, and the original data (RLU) was used for the calculation of the activity of the compounds.
(§7) The activity of the compounds was calculated by using the equation below: Inhibition %=(ZPE−CPD)/(ZPE−HPE)×100%*
as §5
On the technique in general: A replicon is a self-replicating genome or part of one, used to study replication in cells.

Series [2] has as its system HCV GT1b wild-type replicon. The series is described as follows: Assay Example 1: activity against HCV GT1b wild-type replicon (luciferase, transient transfection). Conditions: Hepatitis C virus, 72 h, Huh 7 cells, 3 days. The procedure: as §1, §2, §3, §6, §7, §5
For series [3], the system named is HCV GT1b/6a NS5A chimeric replicon. The series is described as follows: Assay Example 1: activity against HCV GT1b/6a NS5A chimeric replicon. The following applies: Hepatitis C virus, Huh-7, 72 h, read-out: EC50 value GT1b/6a NS5A chimeric replicon. How it is done:
as §1, §2, §3, §6, §7, §5

For series [4], the system named is HCV GT1a wild-type replicon. Description: Assay Example 1: activity against HCV GT1a wild-type replicon. The following applies: Hepatitis C virus, 72 h, Huh 7 cells, 3 days, luciferase. The procedure: as §1, §2, §3, §6, §7, §5
Series [5] concerns HCV GT1b/6a NS5A chimeric replicon. The series is described as follows: Assay Example 2: activity against GT1b/6a NS5A chimeric replicon. Conditions: Hepatitis C virus, Huh-7, 72 h, read-out: EC50 Value GT1b/6a-NS5A-wt. The procedure: (§8) Cells: Huh-7 cells are liver cancer cell strains (from AppTec, USA), HCV GT1a and GT1b wild type (wt) replicons, GT1b/3a, GT1b/4a, GT1b/5a and GT1b/6a NS5A chimeric replicons.
(§9) Treatment of Compound: According to the assay final concentrations of the compounds in Table 5, DMSO stock solutions of the compounds were diluted and then added to a 96-well assay plate. The final concentration of DMSO was 0.5%.
(§10) The preparation of cells: After replicon plasmid DNA was linearized with a corresponding restriction enzyme, the DNA was transcribed into RNA by using T7 RNA polymerase. Replicon RNA prepared by transcription in vitro was transfected into Huh-7 cells by electroporation. Transfected cells were seeded at a density of 10,000 cells per well into the 96-well assay plate containing the diluted compounds, and then placed in a 37° C. incubator with 5% CO2 and cultured for 3 days.
as §6
(§11) The cytotoxicity of the compounds was calculated by using the equation below: Cell Viability %=(CPD−HPE)/(ZPE−HPE)×100%* The activity of the compounds was calculated by using the equation below: Inhibition %=(ZPE−CPD)/(ZPE−HPE)×100%*
(§12) The cell viability percentages (Viability %) and the inhibition percentages (Inhibition %) were imported into GraphPad Prism software, respectively, and curves were fitted by using nonlinear regression method to obtain the corresponding curves of the compounds, and the cytotoxicity (CC50) thereof and the inhibitory activity (EC50) values against the HCV replicon thereof.

Series [6] deals with HCV GT1b wild type (wt) replicon. Description: Assay Example 2: activity against HCV GT1b wild-type replicon. Conditions: Hepatitis C virus, read-out: EC50 Value GT1b-wt. How it is done:
as §8, §9, §10, §6, §11, §12

The nature of series [7]: Assay Example 2: cell viability assay (CellTiter-Fluor), GT1b wild-type replicon plate. The following applies: human, Huh-7 cells with GT1b wild-type replicon, read-out: CC50 Value GT1b-wt. How it is done: as §8, §9, §10, §4, §11, §12
The test system of series [8] is HCV GT1b/3a NS5A chimeric replicon. Description: Assay Example 2: activity against GT1b/3a NS5A chimeric replicon. Conditions: Hepatitis C virus, Huh-7, 72 h, read-out: EC50 Value GT1b/3a-NS5A-wt. The procedure:
as §8, §9, §10, §6, §11, §12

Where [9] appears, read: 72 h, Huh-7 cells, transient transfection, 3 days.
The mark [10] stands for this setting: Huh-7 cells transfected with HCV GT1b wild-type replicon RNA.

SMILES strings stand for the structures. pEC50: −log10 of the molar value. Where two headings read alike, the source gives them in different places. Bounds are passed on as bounds.

The values below come from patent US10766912B2 (priority 2017, dated 2020).

The CC50 is the concentration at which the toxic effect on the cells reaches its halfway point.

For the compound `COC(=O)N[C@H](C(=O)N1CCC[C@H]1C(=O)Nc1ccc([C@@H]2CC[C@@H](c3ccc4nc([C@@H]5CCCN5C(=O)[C@@H](NC(=O)OC)[C@@H](C)OC)[nH]c4c3)N2c2cc(F)c(N3CC[Si](C)(C)CC3)c(F)c2)cc1)[C@@H](C)OC` [Compound 6a, Methyl ((2S,3R)-1-((S)-2-(6-((2S,5S)-1-(4-(4,4-dimethylazasilinan-1-yl)-3,5-difluorophenyl)-5-(4-((S)-1-(N-(methoxycarbonyl)-O-methyl-L-threonyl)pyrrolidin-2-formylamino)phenyl)pyrrolidin-2-yl)-1H-benzo[d]imidazol-2-yl)pyrrolidin-1-yl)-3-methoxy-1-oxobutan-2-yl)carbamate], the CC50 in “in vitro” is > 0.1 nM. The pEC50 was 11.28 in series [1], 11.24 in series [2], 9.64 in [3] and 10.85 in [4].

As to `COC(=O)N[C@H](C(=O)N1CCC[C@H]1c1nc2cc([C@@H]3CC[C@@H](c4ccc5[nH]c([C@@H]6CCCN6C(=O)[C@@H](NC(=O)OC)[C@@H](C)OC)nc5c4)N3c3cc(F)c(N4CC[Si](C)(C)CC4)c(F)c3)ccc2[nH]1)[C@@H](C)OC` [Compound 4a], the CC50 in “in vitro” was > 0.1 nM. Besides, the pEC50 in [1] was 11.41; in [2], 10.96; in series [3], 10.59; in series [4] it was 11.27.

Consider `COC(=O)N[C@H](C(=O)N1CCC[C@H]1C(=O)Nc1ccc([C@@H]2CC[C@@H](c3ccc(NC(=O)[C@@H]4CCCN4C(=O)[C@@H](NC(=O)OC)[C@@H](C)OC)cc3)N2c2cc(F)c(N3CC[Si]4(CCCCC4)CC3)c(F)c2)cc1)[C@@H](C)OC` [Compound 11a], for which the pEC50 is 11.77 in series [5]; 11.87 in series [6] (Huh-7, 72 h); 11.06 in [8]. For the same compound, the CC50 at 3 days in series [7] is > 0.2 nM.

`COC(=O)N[C@H](C(=O)N1CCCC1C(=O)Nc1ccc([C@@H]2CC[C@@H](c3ccc(-c4cnc([C@@H]5CCCN5C(=O)[C@@H](NC(=O)OC)[C@@H](C)OC)[nH]4)cc3)N2c2cc(F)c(N3CC[Si](C)(C)CC3)c(F)c2)cc1)[C@@H](C)OC` (stereo partly drawn) [Compound 8a]: the pEC50 was 11.04 in [5], 11.68 in series [6] (setting [9]) and 10.10 in series [8]. Further, the CC50 at 3 days in series [7] (setting [10]) is > 0.2 nM.

As for `COC(=O)N[C@H](C(=O)N1CCC[C@H]1c1nc2cc([C@H]3CC[C@H](c4ccc5[nH]c([C@@H]6CCCN6C(=O)[C@@H](NC(=O)OC)[C@@H](C)OC)nc5c4)N3c3cc(F)c(N4CC[Si](C)(C)CC4)c(F)c3)ccc2[nH]1)[C@@H](C)OC` [Compound 4b], the CC50 in the series “in vitro” is > 0.1 nM. Moreover, the pEC50 was 11.82 in series [1], 11.23 in series [2], 11.30 in [3] and 11.39 in series [4].

Consider `COC(=O)N[C@H](C(=O)N1CCC[C@H]1c1nc2cc([C@H]3CC[C@H](c4ccc5[nH]c([C@@H]6CCCN6C(=O)[C@@H](NC(=O)OC)[C@@H](C)OC)nc5c4)N3c3ccc(N4CC[Si](C)(C)CC4)c(F)c3)ccc2[nH]1)[C@@H](C)OC` [Compound 5b], for which, in the series “in vitro”, the CC50 is > 0.1 nM. Further, the pEC50 in series [1] was 11.20; in [2], 10.77; in series [3] it was 10.80; in series [4], 10.89.

Consider `COC(=O)N[C@H](C(=O)N1CCC[C@H]1C(=O)Nc1ccc([C@H]2CC[C@H](c3ccc(NC(=O)[C@@H]4CCCN4C(=O)[C@@H](NC(=O)OC)[C@@H](C)OC)cc3)N2c2cc(F)c(N3CC[Si](C)(C)CC3)c(F)c2)cc1)[C@@H](C)OC` [Compound 1b, Methyl ((2S,2′S,3R,3′R)-((2S,2′S)-(((((2R,5R)-1-(4-(4,4-dimethylazasilinan-1-yl)-3,5-difluorophenyl)pyrrolidin-2,5-diyl)bis(4,1-phenylene))bis(azanediyl))bis(carbonyl))bis(pyrrolidin-2,1-diyl))bis (3-methoxy-1-oxobutan-1,2-diyl))dicarbamate], for which the CC50 in “in vitro” was > 0.1 nM. Moreover, the pEC50 in series [1] was 11.32; in series [2], 11.77; in series [3] it was 9.94; in series [4], 10.92.

In the case of `COC(=O)N[C@H](C(=O)N1CCCC1c1nc2cc([C@H]3CC[C@H](c4ccc(-c5cnc([C@@H]6CCCN6C(=O)[C@@H](NC(=O)OC)[C@@H](C)OC)[nH]5)cc4)N3c3cc(F)c(N4CC[Si](C)(C)CC4)c(F)c3)ccc2[nH]1)[C@@H](C)OC` (stereo partly drawn) [Compound 15b], the pEC50 in series [6] (setting [9]) is 11.53; in series [8] it was 11.14. For the same compound, the CC50 at 3 days in series [7] (setting [10]) was > 0.2 nM.

`COC(=O)N[C@H](C(=O)N1CCC[C@H]1c1nc2cc([C@@H]3CC[C@@H](c4ccc5[nH]c([C@@H]6CCCN6C(=O)[C@@H](NC(=O)OC)[C@@H](C)OC)nc5c4)N3c3ccc(N4CC[Si](C)(C)CC4)c(F)c3)ccc2[nH]1)[C@@H](C)OC` [Compound 5a]: the CC50 in “in vitro” was > 0.1 nM. Also, the pEC50 in [1] is 10.89; in series [2], 10.72; in [3] it was 9.76; in series [4] it was 10.77.

As for `COC(=O)N[C@H](C(=O)N1CCC[C@H]1C(=O)Nc1ccc([C@@H]2CC[C@@H](c3ccc(NC(=O)[C@@H]4CCCN4C(=O)[C@@H](NC(=O)OC)[C@@H](C)OC)cc3)N2c2ccc(N3CC[Si](C)(C)CC3)c(F)c2)cc1)[C@@H](C)OC` [Compound 2a, Methyl ((2S, 2′S, 3R, 3′R)-((2S, 2′S)-(((((2S, 5S)-1-(4-(4,4-dimethylazasilinan-1-yl)-3-fluorophenyl)pyrrolidin-2,5-diyl)bis(4,1-phenylene))bis(azanediyl))bis(carbonyl))bis(pyrrolidin-2,1-diyl))bis(3-methoxy-1-oxobutan-1,2-diyl))dicarbamate], the CC50 in “in vitro” was > 0.1 nM. For the same compound, the pEC50 in series [1] was 11.22; in [2] it was 11.54; in [3] it was 9.62; in series [4] it was 10.92.

For `COC(=O)N[C@H](C(=O)N1CCC[C@H]1C(=O)Nc1ccc([C@H]2CC[C@H](c3ccc(NC(=O)[C@@H]4CCCN4C(=O)[C@@H](NC(=O)OC)[C@@H](C)OC)cc3)N2c2ccc(N3CC[Si](C)(C)CC3)c(F)c2)cc1)[C@@H](C)OC` [Compound 2b, Methyl ((2S, 2′S, 3R, 3′R)-((2S, 2′S)-(((((2R, 5R)-1-(4-(4,4-dimethylazasilinan-1-yl)-3-fluorophenyl)pyrrolidin-2,5-diyl)bis(4,1-phenylene))bis(azanediyl))bis(carbonyl))bis(pyrrolidin-2,1-diyl))bis(3-methoxy-1-oxobutan-1,2-diyl))dicarbamate], in “in vitro”, the cytotoxic concentration (CC50) was > 0.1 nM. Further, the pEC50 in [1] is 10.85; in series [2], 10.80; in series [3] it was 9.34; in [4], 10.19.
